TGI data for 17 compounds are collected here from PubChem BioAssay (NCI).

Molecules are shown by their SMILES.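 A five-concentration, 48-hour dose response in 96-well plates underlies each endpoint, interpolated linearly between surrounding concentrations. TGI marks complete inhibition of growth.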 Where a SMILES comes first, the peptide text is derived from it. [ ]: non-standard residue; d: D form. The star is where a group is joined. NMeAc5c = CNC1(C(=O)O)CCCC1; Boc = CC(C)(C)OC(=O)*; OBn = c1ccc(CO*)cc1

Among the test systems are SK-MEL-5 melanoma; MDA-MB-435; SK-MEL-2 melanoma; SNB-19 CNS; SF-539 CNS; HL-60(TB) leukemia; OVCAR-3 ovarian; 786-0 renal; NCI-H23 lung; COLO 205 colon; IGROV1 ovarian.
Holding throughout (assay): inhibition of tumour cell growth, NCI panel, 48 h

With `O=C1CCCSC(=O)N1Cc1ccccc1`, the TGI in the experiment on SK-MEL-5 melanoma, in the experiment with MDA-MB-435, in the experiment with SK-MEL-2 melanoma, with SNB-19 CNS, in the experiment on SF-539 CNS and with HL-60(TB) leukemia was over 100 µM in each case. Further, the TGI with OVCAR-3 ovarian, in the experiment on 786-0 renal, in the experiment with NCI-H23 lung, in the experiment with COLO 205 colon and with IGROV1 ovarian was over 100 µM each time.

For `CC(=O)OC1CC(OC2C(O)CC(OC3C(O)CC(OC4CCC5(C)C(CCC6C5CC(O)C5(C)C(C7=CC(=O)OC7)CCC65O)C4)OC3C)OC2C)OC(C)C1OC1OC(CO)C(O)C(O)C1O` (configuration not stated), the TGI in the experiment with SK-MEL-5 melanoma stood at 0.161 µM; in the experiment with MDA-MB-435, 0.61 µM; in the experiment with SK-MEL-2 melanoma, 0.488 µM; with SNB-19 CNS it was 0.957 µM; with SF-539 CNS, 0.0891 µM; with HL-60(TB) leukemia, 0.22 µM. Also, the TGI stood at 0.15 µM in the experiment with OVCAR-3 ovarian; 0.107 µM with 786-0 renal; 0.0744 µM with NCI-H23 lung; 0.394 µM in the experiment on COLO 205 colon; 1.11 µM in the experiment on IGROV1 ovarian.

As for `[N-]=[N+]=NC[C@H]1OCO[C@H](CN=[N+]=[N-])[C@@H](OCCOCCCl)[C@@H]1OCCOCCCl`, the TGI in the experiment with SK-MEL-5 melanoma, in the experiment with MDA-MB-435, in the experiment on SK-MEL-2 melanoma, in the experiment on SNB-19 CNS, with SF-539 CNS and in the experiment on HL-60(TB) leukemia was over 100 µM each time. The TGI in the experiment with OVCAR-3 ovarian, in the experiment with 786-0 renal, in the experiment on NCI-H23 lung, with COLO 205 colon and with IGROV1 ovarian was over 100 µM throughout.

As for `C=CCN1C[C@H](C)N([C@H](c2ccc(C(=O)NC(CC)CC)cc2)c2cccc(OC)c2)C[C@H]1C`, the TGI was 32.4 µM in the experiment with SK-MEL-5 melanoma; over 100 µM with MDA-MB-435; 46.1 µM in the experiment with SK-MEL-2 melanoma; over 100 µM with SNB-19 CNS; 43.4 µM with SF-539 CNS; 32.4 µM in the experiment with HL-60(TB) leukemia. The TGI in the experiment with OVCAR-3 ovarian is over 100 µM; in the experiment with 786-0 renal, over 100 µM; in the experiment on NCI-H23 lung, over 100 µM; in the experiment with COLO 205 colon it was 32.5 µM; with IGROV1 ovarian, over 100 µM.

With `C[C@]12CCC(O)CC1=CC[C@@H]1[C@@H]2CC[C@]2(C)C(=O)[C@H](n3ccnc3)C[C@@H]12` (some centres not stated), the TGI was 45.2 µM in the experiment on SK-MEL-5 melanoma; over 100 µM with MDA-MB-435; over 100 µM in the experiment with SK-MEL-2 melanoma; over 100 µM in the experiment on SNB-19 CNS; over 100 µM with SF-539 CNS; 40.7 µM in the experiment on HL-60(TB) leukemia. The TGI in the experiment with OVCAR-3 ovarian is over 100 µM; in the experiment with 786-0 renal, over 100 µM; in the experiment on NCI-H23 lung, over 100 µM; in the experiment with COLO 205 colon, 71 µM; with IGROV1 ovarian, over 100 µM.

Turning to `CN(C(=O)C(Cc1ccccc1)NC(=O)OC(C)(C)C)C1(C(=O)NC(Cc2ccccc2)C(=O)OCc2ccccc2)CCCC1` (stereo not drawn) (Boc-Phe-[NMeAc5c]-Phe-OBn; configuration not given here), the TGI was over 100 µM with SK-MEL-5 melanoma; over 100 µM in the experiment with MDA-MB-435; over 100 µM in the experiment with SK-MEL-2 melanoma; over 100 µM in the experiment with SNB-19 CNS; over 100 µM in the experiment on SF-539 CNS; 47.5 µM with HL-60(TB) leukemia. Besides, the TGI in the experiment on OVCAR-3 ovarian is over 100 µM; with 786-0 renal it was over 100 µM; in the experiment with NCI-H23 lung it was over 100 µM; in the experiment with COLO 205 colon it was 52.3 µM; in the experiment on IGROV1 ovarian, over 100 µM.

In the case of `CCCCCCc1cc2cc(-c3csc(CC#N)n3)c(=O)oc2cc1O`, the TGI in the experiment on SK-MEL-5 melanoma was over 100 µM; with MDA-MB-435, over 100 µM; with SK-MEL-2 melanoma, over 100 µM; in the experiment with SNB-19 CNS, over 100 µM; in the experiment with SF-539 CNS, over 64.5 µM; in the experiment with HL-60(TB) leukemia, over 66.9 µM. Also, the TGI is over 100 µM with OVCAR-3 ovarian; over 64.2 µM in the experiment on 786-0 renal; over 100 µM with NCI-H23 lung; over 100 µM in the experiment with COLO 205 colon; over 100 µM in the experiment on IGROV1 ovarian.

Take `COc1cc(Br)cc2cc(-c3cn4ccsc4n3)c(=O)oc12`: the TGI is 49.9 µM in the experiment with SK-MEL-5 melanoma; 51.2 µM with MDA-MB-435; over 100 µM in the experiment on SK-MEL-2 melanoma; over 100 µM in the experiment with SNB-19 CNS; over 100 µM in the experiment on SF-539 CNS; over 100 µM with HL-60(TB) leukemia. In addition, the TGI in the experiment with OVCAR-3 ovarian, with 786-0 renal, with NCI-H23 lung, in the experiment on COLO 205 colon and with IGROV1 ovarian was over 100 µM in each case.

Take `Cc1ccccc1C(=O)N1CCc2c([nH]c3ccccc23)C1`: the TGI is 29.6 µM in the experiment on SK-MEL-5 melanoma; 37.3 µM in the experiment on MDA-MB-435; 27 µM in the experiment with SK-MEL-2 melanoma; over 100 µM with SNB-19 CNS; 48.4 µM with SF-539 CNS; 39.2 µM with HL-60(TB) leukemia. For the same compound, the TGI in the experiment on OVCAR-3 ovarian was 74.1 µM; in the experiment on 786-0 renal, 54.4 µM; in the experiment on NCI-H23 lung, 50.9 µM; in the experiment on COLO 205 colon, 31.9 µM; with IGROV1 ovarian, over 100 µM.

On to `O=C1/C(=C\c2ccccc2)C(NC2CCCCC2)c2ccccc21` (configuration not stated), for which the TGI with SK-MEL-5 melanoma is 6.65 µM; with MDA-MB-435, 3.18 µM; in the experiment on SK-MEL-2 melanoma, 5.25 µM; in the experiment with SNB-19 CNS, 22.5 µM; in the experiment on SF-539 CNS, 4.39 µM; with HL-60(TB) leukemia, 3.02 µM. Besides, the TGI in the experiment with OVCAR-3 ovarian is 2.51 µM; with 786-0 renal, 2.14 µM; with NCI-H23 lung, 2.28 µM; in the experiment with COLO 205 colon it was 3.22 µM; in the experiment with IGROV1 ovarian, 10.4 µM.

As to `NC(N)=N/N=C/c1c(-c2ccc(N)cc2)nc2sccn12`, the TGI with SK-MEL-5 melanoma was over 100 µM; with MDA-MB-435 it was 94 µM; in the experiment on SK-MEL-2 melanoma, 81.8 µM; in the experiment on SNB-19 CNS it was 69.1 µM; with SF-539 CNS it was 63.9 µM; in the experiment on HL-60(TB) leukemia, 47.9 µM. In addition, the TGI in the experiment with OVCAR-3 ovarian was 67.3 µM; in the experiment with 786-0 renal, 62 µM; in the experiment with NCI-H23 lung it was 95.2 µM; in the experiment on COLO 205 colon it was 57.8 µM; with IGROV1 ovarian, over 100 µM.

Take `O=C1C=CC(=O)c2c1ccc1c3ccccc3n(CCCCCCCCCCCCn3c4ccccc4c4ccc5c(c43)C(=O)C=CC5=O)c21`: the TGI with SK-MEL-5 melanoma is over 100 µM; with MDA-MB-435, over 100 µM; in the experiment with SK-MEL-2 melanoma, over 100 µM; with SNB-19 CNS it was over 100 µM; with SF-539 CNS, over 100 µM; in the experiment on HL-60(TB) leukemia, over 91.3 µM. Besides, the TGI in the experiment on OVCAR-3 ovarian, with 786-0 renal, with NCI-H23 lung, with COLO 205 colon and in the experiment with IGROV1 ovarian was over 100 µM each time.

As for `CC(C)=CCc1c2c(c3occ(-c4ccc(O)cc4)c(=O)c3c1O)CC(C(C)(C)O)O2` (configuration not stated), the TGI stood at 30.1 µM in the experiment with SK-MEL-5 melanoma; 30.5 µM in the experiment on MDA-MB-435; 28.1 µM in the experiment on SK-MEL-2 melanoma; 31.3 µM with SNB-19 CNS; 41.1 µM with SF-539 CNS; 34.4 µM in the experiment with HL-60(TB) leukemia. Moreover, the TGI in the experiment on OVCAR-3 ovarian is 27.9 µM; in the experiment on 786-0 renal it was 35.6 µM; in the experiment on NCI-H23 lung, 36 µM; in the experiment on COLO 205 colon, 30 µM; with IGROV1 ovarian it was 12 µM.

As for `CC1(C)N=[N+]([O-])C1(C)C`, the TGI in the experiment with SK-MEL-5 melanoma, in the experiment on MDA-MB-435, with SK-MEL-2 melanoma, in the experiment with SNB-19 CNS, in the experiment with SF-539 CNS and with HL-60(TB) leukemia was over 100 µM throughout. The TGI in the experiment on OVCAR-3 ovarian, in the experiment on 786-0 renal, with NCI-H23 lung, with COLO 205 colon and in the experiment with IGROV1 ovarian was over 100 µM throughout.

For the compound `C=C1C(=O)O[C@@H]2C(=O)[C@@H](C)CCC/C(C)=C/CC[C@@]3(C)O[C@@H]3C[C@@H]12`, the TGI is 56.7 µM with SK-MEL-5 melanoma; over 100 µM in the experiment on MDA-MB-435; over 100 µM with SK-MEL-2 melanoma; over 100 µM with SNB-19 CNS; 60.6 µM with SF-539 CNS; 33.4 µM with HL-60(TB) leukemia. For the same compound, the TGI is over 100 µM with OVCAR-3 ovarian; 43.9 µM with 786-0 renal; over 100 µM with NCI-H23 lung; 47.9 µM in the experiment on COLO 205 colon; 45.7 µM in the experiment with IGROV1 ovarian.

`COc1cc(C(=O)N(C(=S)OCc2ccccn2)c2ccccc2)cc(OC)c1OC`: the TGI in the experiment with SK-MEL-5 melanoma was over 100 µM; in the experiment with MDA-MB-435, over 100 µM; with SK-MEL-2 melanoma, over 100 µM; in the experiment with SNB-19 CNS, over 100 µM; in the experiment on SF-539 CNS, 81 µM; with HL-60(TB) leukemia, over 100 µM. The TGI in the experiment with OVCAR-3 ovarian was over 100 µM; with 786-0 renal, over 100 µM; in the experiment with NCI-H23 lung, over 100 µM; with COLO 205 colon, over 100 µM; with IGROV1 ovarian it was 79.6 µM.

For the compound `ClCCN1CCC2(CC1)SSC1(CCN(CCCl)CC1)S2`, the TGI in the experiment on SK-MEL-5 melanoma was over 100 µM; in the experiment on MDA-MB-435, over 100 µM; in the experiment on SK-MEL-2 melanoma, over 100 µM; with SNB-19 CNS, over 100 µM; with SF-539 CNS, 56.3 µM; in the experiment with HL-60(TB) leukemia it was 76.8 µM. In addition, the TGI in the experiment with OVCAR-3 ovarian was 63.3 µM; in the experiment with 786-0 renal, over 100 µM; with NCI-H23 lung, over 100 µM; with COLO 205 colon, 41.2 µM; in the experiment on IGROV1 ovarian, over 100 µM.
